In PubChem BioAssay AID1963437 (Molecular Pharmacology Branch, DTP, NCI, 2024):

System: OVCAR-8 complex spheroid, growth inhibition
Test: Anticancer human tumor OVCAR-8 cell line growth inhibition [Asc];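 further: spheroids exposed to agents for 7 days before readout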;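 on viability, T/C: percent viability relative to DMSO vehicle wells taken as 100%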
Conditions: for IC50: curve of first compound; for viability, T/C: stronger effect = lower value
Method in brief: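 Tumor cells were grown as complex spheroids with human endothelial cells (HUVEC) and human mesenchymal stem cells as stroma. Agents were tested alone and in combination, in half-log steps down from the clinical Cmax, or from 10 microM where Cmax was unknown.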

[1] = second compound 0.0316 µM, first compound 0.0316 µM
[2] = second compound 0.0316 µM, first compound 0.1 µM
[3] = second compound 0.0316 µM, first compound 0.316 µM
[4] = second compound 0.0316 µM, first compound 1 µM
[5] = second compound 0.1 µM, first compound 0.0316 µM
[6] = second compound 0.1 µM, first compound 0.1 µM
[7] = second compound 0.1 µM, first compound 0.316 µM
[8] = second compound 0.1 µM, first compound 1 µM
[9] = second compound 0.316 µM, first compound 0.0316 µM
[10] = second compound 0.316 µM, first compound 0.1 µM
[11] = second compound 0.316 µM, first compound 0.316 µM
[12] = second compound 0.316 µM, first compound 1 µM
[13] = second compound 1 µM, first compound 0.0316 µM
[14] = second compound 1 µM, first compound 0.1 µM
[15] = second compound 1 µM, first compound 0.316 µM
[16] = second compound 1 µM, first compound 1 µM
[17] = second compound 3.16 µM, first compound 0.0316 µM
[18] = second compound 3.16 µM, first compound 0.1 µM
[19] = second compound 3.16 µM, first compound 0.316 µM
[20] = second compound 3.16 µM, first compound 1 µM
[21] = second compound 10 µM, first compound 0.0316 µM
[22] = second compound 10 µM, first compound 0.1 µM
[23] = second compound 10 µM, first compound 0.316 µM
[24] = second compound 10 µM, first compound 1 µM

Structure (SMILES): C=CC(=O)N1CCN(c2nc(=O)n(-c3c(C)ccnc3C(C)C)c3nc(-c4c(O)cccc4F)c(F)cc23)C(C)C1 (centres undefined) + Cc1c(S(C)(=O)=O)c(-c2cc(F)cc(N3CCN(c4ccc(NS(=O)(=O)c5ccc(NC(CCN6CCC(C(=O)OCCCP(=O)(O)O)CC6)CSc6ccccc6)c(S(=O)(=O)C(F)(F)F)c5)cc4)CC3)c2)c(-c2ccc(Cl)cc2)n1C(C)C
- IC50 (second compound 0.0316 µM): > 10 µM
- IC50 (second compound 0.1 µM): > 10 µM
- IC50 (second compound 0.316 µM): > 10 µM
- IC50 (second compound 1 µM): > 10 µM
- IC50 (second compound 3.16 µM): > 10 µM
- IC50 (second compound 10 µM): > 10 µM
- viability, T/C [1]: 109%
- viability, T/C [2]: 113%
- viability, T/C [3]: 93.3%
- viability, T/C [4]: 95%
- viability, T/C (second compound 0.0316 µM, first compound 3.16 µM): 106%
- viability, T/C (second compound 0.0316 µM, first compound 10 µM): 122%
- viability, T/C [5]: 101%
- viability, T/C [6]: 96.2%
- viability, T/C [7]: 94.5%
- viability, T/C [8]: 104%
- viability, T/C (second compound 0.1 µM, first compound 3.16 µM): 93.3%
- viability, T/C (second compound 0.1 µM, first compound 10 µM): 118%
- viability, T/C [9]: 97.5%
- viability, T/C [10]: 92.3%
- viability, T/C [11]: 106%
- viability, T/C [12]: 93.6%
- viability, T/C (second compound 0.316 µM, first compound 3.16 µM): 99%
- viability, T/C (second compound 0.316 µM, first compound 10 µM): 123%
- viability, T/C [13]: 104%
- viability, T/C [14]: 112%
- viability, T/C [15]: 114%
- viability, T/C [16]: 92.9%
- viability, T/C (second compound 1 µM, first compound 3.16 µM): 92.8%
- viability, T/C (second compound 1 µM, first compound 10 µM): 109%
- viability, T/C [17]: 102%
- viability, T/C [18]: 98.3%
- viability, T/C [19]: 89.7%
- viability, T/C [20]: 104%
- viability, T/C (second compound 3.16 µM, first compound 3.16 µM): 93.7%
- viability, T/C (second compound 3.16 µM, first compound 10 µM): 105%
- viability, T/C [21]: 101%
- viability, T/C [22]: 91.5%
- viability, T/C [23]: 81.9%
- viability, T/C [24]: 91.6%
- viability, T/C (second compound 10 µM, first compound 3.16 µM): 99.5%
- viability, T/C (second compound 10 µM, first compound 10 µM): 101%

Structure (SMILES): COc1c(OCCCN2CCOCC2)ccc2c3n(c(=NC(=O)c4cnc(N)nc4)nc12)CCN3 + Cc1c(S(C)(=O)=O)c(-c2cc(F)cc(N3CCN(c4ccc(NS(=O)(=O)c5ccc(NC(CCN6CCC(C(=O)OCCCP(=O)(O)O)CC6)CSc6ccccc6)c(S(=O)(=O)C(F)(F)F)c5)cc4)CC3)c2)c(-c2ccc(Cl)cc2)n1C(C)C
- IC50 (second compound 0.0316 µM): > 1 µM
- IC50 (second compound 0.1 µM): > 1 µM
- IC50 (second compound 0.316 µM): > 1 µM
- IC50 (second compound 1 µM): > 1 µM
- IC50 (second compound 3.16 µM): > 1 µM
- IC50 (second compound 10 µM): > 1 µM
- viability, T/C (second compound 0.0316 µM, first compound 0.00316 µM): 114%
- viability, T/C (second compound 0.0316 µM, first compound 0.01 µM): 104%
- viability, T/C [1]: 128%
- viability, T/C [2]: 150%
- viability, T/C [3]: 149%
- viability, T/C [4]: 82.2%
- viability, T/C (second compound 0.1 µM, first compound 0.00316 µM): 100%
- viability, T/C (second compound 0.1 µM, first compound 0.01 µM): 107%
- viability, T/C [5]: 142%
- viability, T/C [6]: 161%
- viability, T/C [7]: 145%
- viability, T/C [8]: 85.9%
- viability, T/C (second compound 0.316 µM, first compound 0.00316 µM): 91.6%
- viability, T/C (second compound 0.316 µM, first compound 0.01 µM): 121%
- viability, T/C [9]: 154%
- viability, T/C [10]: 146%
- viability, T/C [11]: 140%
- viability, T/C [12]: 85.8%
- viability, T/C (second compound 1 µM, first compound 0.00316 µM): 114%
- viability, T/C (second compound 1 µM, first compound 0.01 µM): 119%
- viability, T/C [13]: 167%
- viability, T/C [14]: 181%
- viability, T/C [15]: 142%
- viability, T/C [16]: 82.8%
- viability, T/C (second compound 3.16 µM, first compound 0.00316 µM): 144%
- viability, T/C (second compound 3.16 µM, first compound 0.01 µM): 98.8%
- viability, T/C [17]: 136%
- viability, T/C [18]: 170%
- viability, T/C [19]: 135%
- viability, T/C [20]: 64.2%
- viability, T/C (second compound 10 µM, first compound 0.00316 µM): 131%
- viability, T/C (second compound 10 µM, first compound 0.01 µM): 141%
- viability, T/C [21]: 146%
- viability, T/C [22]: 189%
- viability, T/C [23]: 143%
- viability, T/C [24]: 76.2%
